Source: patent US20250002854A1, “METHODS OF GENERATING POPULATIONS OF TUMOUR-INFILTRATING T CELLS” (LYTIX BIOPHARMA AS, priority 2016, published 2025)
Square brackets hold non-standard residues; d marks the D form. Ends that are not written are not given here. Dip = N[C@H](C(=O)O)C(c1ccccc1)c1ccccc1

Tests used:
HEPG2 = test: In vitro cytotoxicity, MTT assay; assay type: cell-based; conditions: HEPG2 human hepatocellular carcinoma
Excerpt: (§1) JM1, a rat hepatocellular carcinoma, HEPG2 and BEL7402, both human hepatocellular carcinomas, were kindly provided by Dr. Pål-Dag Line, Director, Department of Transplantation Medicine, Oslo University Hospital. B16F1 (ATCC, CRL-6323), a murine skin malignant melanoma, MDA-MB-435S (HTB-129), a human malignant melanoma originating from a breast metastases, Malme-3M (HTB-64), a human malignant melanoma derived from a lung metastases, MRC-5 (ATCC, CCL-171), normal human lung fibroblasts, SK-N-AS (ATCC, CRL-2137), a human neuroblastoma cell line derived from a bone marrow metastases, HT-29 (ATCC, HTB-38), a human colorectal adenocarcinoma and HUV-EC-C (ATCC, CRL-1730), a human vascular endothelium cell line, were all purchased from the American Type Culture Collection (ATCC-LGC Standards, Rockville, MD, USA). HaCat, a human keratinocyte cell line, was kindly provided by Dr. Ingvild Pettersen, Department of Host Microbe Interactions, University of Tromsø. A375, a malignant melanoma cell line of human origin, was purchased from Public Health England (PHE Culture Conditions, Porton, Down, Salisbury, UK). JM1, A375, BEL7402, HEPG2 and B16F1 were all maintained in culture media consisting of DMEM (high glucose), while SK-N-AS, HT-29 and MDA-MB-435S were cultured in an RPMI-1640 medium containing 2 mM L-glutamine and sodium bicarbonate. Malme-3M was cultured in RPMI-1640, containing 4 mM L-glutamine and 20% FBS (fetal bovine serum). Lastly, the three non-malignant cell lines, HUV-EC-C, MRC-5 and HaCat, were cultured, respectively, using the EGM-2 BulletKit (Lonza, MA), containing basal media and growth factors, MEM (normal glucose) also containing 2 mM L-glutamine and 1% non-essential amino acids and DMEM (normal glucose) containing 2 mM L-glutamine. All media were (if not specified otherwise) supplemented with 10% FBS, with the exception of the EGM-2 BulletKit, which is delivered with an aliquot of 10 ml FBS to yield a final concentration of 2% FBS in solution. […]

MDA-MB-435S = test: In vitro cytotoxicity, MTT assay; assay type: cell-based; conditions: MDA-MB-435S human malignant melanoma
Excerpt: as §1

remaining cell lines = test: In vitro cytotoxicity, MTT assay; assay type: cell-based
Excerpt: as §1

A375 cells [1] = test: Release of ATP (luciferase bioluminescence); assay type: cell-based, human; conditions: 5 minutes, different concentrations
Experimental: The supernatant of LTX-315-treated A375 cells was analyzed using an Enliten ATP luciferase assay kit (Promega, USA). Cells were then seeded as with an ROS assay, and treated with LTX-315 in different incubation times, from 1 to 15 minutes with two parallels, which was then conducted three times. Negative controls were untreated A375 cells exposed to serum-free media alone. Samples were diluted at 1:50 and 1:100, and analyzed with a Luminoscan RT luminometer according to the manufacturer's protocol.

A375 cells [2] = test: Confocal imaging with Mitotracker (mitochondrial membrane potential); assay type: cell-based, human; conditions: short time after peptide treatment; data not shown
Experimental: Fixed cells, mitotracker—Cells were seeded as for live cell imaging, and treated with Mitotracker CMH2XROS (Invitrogen) at […] for 15 minutes prior to peptide treatment. Cells were treated with 17 μM LTX-315, with negative control serum-free RPMI only. After 60 min of incubation, cells were analyzed using a Zeiss microscope.

[3] = tested on: rat transformed mesenchymal stem cell-derived sarcoma (rTMSC); test: FACS analysis of TILs in rat rTMSC sarcoma model; assay type: in vivo; conditions: for percentage of T cells / CD8+ cells within the CD3+ T cell population: mean±SD
Experimental: Pre-cultured rat transformed mesenchymal stem cell-derived sarcoma model cells (rTMSCs) were harvested in serum free RPMI-1640 and 200,000 rTMSCs were subcutaneously inoculated in the right flank into PVG rats on day ÷2 and 20,000 rTMSCs in the opposite flank on day 0. Established tumours (25 mm^2 mean tumour size) were injected intralesionally with LTX-315 (dissolved in sterile H2O with 0.9% NaC ) (n=8) or with vehicle (sterile H2O with 0.9% NaCl) (n=6). Treatment doses of LTX-315, 50 μl at […] (1 mg), were given using a 1 ml syringe (Myjector U-100, Terumo) needle 0.5×16 mm (Fine-Ject; Henke-Sass, Wolf GmbH. Injections were provided daily for three subsequent days. Tumour size was measured three times a week using a caliper and expressed as the area of an ellipse [(maximum dimension/2)×(minimum dimension/2)]. Animals were terminated when the tumor exceeded 400 mm^2.
Single-cell suspensions were prepared from fresh tumour tissue at different time points during the week after LTX-315 treatment. Tumours were gently minced with a razor blade and cut into small pieces (4 mm^2). Tumour tissue was incubated with Liberase TM (Thermolysin Medium; Roche Diagnostics) at a concentration of 0.18 Wünsch units/ml in 10 ml MEM media (Sigma-Aldrich) at 37° C. for 60 min with gentle agitation. The enzymatic digestion was terminated by addition of 2 ml 4° C. FCS (Invitrogen, Thermo Fischer). The cell suspension was filtered through a […] mesh (Cell Strainer; BD), washed in PBS and cells were then directly used for flow cytometric staining.
The mouse monoclonal antibodies against CD4 ([…]) and CD8 ([…]) were isolated from culture supernatants from hybridomas and were kind gifts from the MRC Cellular Immunology Unit, Oxford, UK. They were conjugated at IMB according to standard protocols. Fluorochrome-conjugated mAbs against CD3 (G4.18) was obtained from BD Biosciences, including PerCP Streptavidin. A four-color panel consisting of reagents in FITC/AI488, PE, PerCP Streptavidin and AI647 was applied and analyzed on a FACS Calibur (BD) equipped with the CellQuest software (BD). Dot plot and histogram gates were set using isotype control antibodies.

| Molecule | IC50 (HEPG2) | IC50 (MDA-MB-435S) | IC50 (remaining cell lines) | ATP in the supernatant (A375 cells [1]) | Mitotracker mitochondrial signal (A375 cells [2]) | percentage of T cells ([3]; primary treated lesion) | CD8+ cells within the CD3+ T cell population ([3]; primary tumor of treated rats) | CD8+ cells within the CD3+ T cell population ([3]; secondary tumor of treated rats) | increase of percentage of T cells compared to untreated rats ([3]; secondary tumor tissue) | percentage of T cells ([3]; secondary tumor tissue) |
| --- | --- | --- | --- | --- | --- | --- | --- | --- | --- | --- |
| Cl.Cl.NCCNC(=O)C(CN)(CCCc1ccccc1)CCCc1ccccc1 [LTX-401] | 35.4 µM | 13.5 µM | 19 to 32 µM | – | – | – | – | – | – | – |
| K-K-W-W-K-K-W-Dip-K-NH2 (KKWWKKW[Dip]K-NH2) [LTX-315] | – | – | – | detected in the supernatant as early as after 5 minutes of treatment | loss of mitochondrial signal | 28.35±11.78% | 62.77±13.3 | 45.8±5.4 | 3 fold | 39.83±17.4% |
